The record followed here is US11986480B2, “Heterocyclic compound” (TOHOKU UNIVERSITY, priority 2017, dated 2024).

Molecules are shown by their SMILES. Where a name gives a salt, the structure may show the parent alone.

The subject of the first assay is EmGFP-HaloTag. Put plainly: Test Example 1: HeLa cells stably expressing EmGFP-HaloTag, Western blot GFP/actin (Testing Method A). It is filed as cell-based. Conditions: 1 uM, 24 hours, 1 or less = degradation promoted. The method, then:
Test Example 1: Evaluation Method Using Cell Stably Expressing EmGFP-HaloTag (Testing Method A)
HeLa cells stably expressing EmGFP-HaloTag were inoculated to Dulbecco's Modified Eagle Medium (DMEM) and cultured for 24 hours. Then, a test compound (specifically, compounds of Examples 1 to 7, 9 to 11, 13 to 15, 17 to 20, 24 to 27, 29, 32 to 33, 36 to 42, 44 to 46 and 56) was added thereto at the final concentration shown in Table 2, followed by incubation for 24 hours under conditions of 37° C./5% CO2. The cells were washed with PBS three times and treated with a cell lysis solution containing a proteolytic enzyme inhibitor to obtain a cell extract. The cell extract was subjected to SDS-PAGE. After the electrophoresis, GFP and actin were detected by Western blot. The ratio of the GFP/actin value of the drug-treated cells to the GFP/actin value of a control group in drug-untreated cells was regarded as an activity value. A value of 1 or less represents that degradation of EmGFP-HaloTag was promoted.
For orientation: In western blotting, separated proteins are transferred to a membrane and probed.
`CC(=O)N[C@@H](CSc1nc2c(N)ncnc2n1Cc1ccc(F)cc1)C(=O)NCCOCCOCCOCCOCCOCCCCCCCl` [Example 17, N^2-Acetyl-S-(6-amino-9-(4-fluorobenzyl)-9H-purin-8-yl)-N-(21-chloro-3,6,9,12,15-pentaoxahenicos-1-yl)-L-cysteinamide trifluoroacetate]: the “Activity value (GFP/actin of drug-treated cells relative to drug-untreated control)” value came to 0.7.

For `CC(=O)N[C@@H](CSc1nc2c(=O)[nH]c(N)nc2n1Cc1ccc(C)cc1)C(=O)NCCOCCOCCOCCOCCOCCCCCCCl` [Example 25, N^2-acetyl-S-(2-amino-9-(4-methylbenzyl)-6-oxo-6,9-dihydro-1H-purin-8-yl)-N-(21-chloro-3,6,9,12,15-pentaoxahenicos-1-yl)-L-cysteinamide], the “Activity value (GFP/actin of drug-treated cells relative to drug-untreated control)” value was found to be 0.9. Turning to `CC(=O)N[C@@H](CSc1nc2c(=O)[nH]c(N)nc2n1Cc1cccc(Cl)c1)C(=O)NCCOCCOCCOCCOCCOCCCCCCCl` [Example 37, N^2-acetyl-S-(2-amino-9-(3-chlorobenzyl)-6-oxo-6,9-dihydro-1H-purin-8-yl)-N-(21-chloro-3,6,9,12,15-pentaoxahenicos-1-yl)-L-cysteinamide], the “Activity value (GFP/actin of drug-treated cells relative to drug-untreated control)” value came out at 0.7. For the compound `CC(=O)N[C@@H](CSc1nc2c(=O)n(C)c(=O)n(C)c2n1Cc1ccc(F)cc1)C(=O)NCCOCCOCCOCCOCCOCCCCCCCl` [Example 13, N^2-Acetyl-N-(21-chloro-3,6,9,12,15-pentaoxahenicos-1-yl)-S-(9-(4-fluorobenzyl)-1,3-dimethyl-2,6-dioxo-2,3,6,9-tetrahydro-1H-purin-8-yl)-L-cysteinamide], the “Activity value (GFP/actin of drug-treated cells relative to drug-untreated control)” value is listed as 0.1. Still for that read-out and setting: the figure for `Nc1nc2c(nc(C(=O)NCCOCCOCCOCCOCCOCCCCCCCl)n2Cc2ccc(F)cc2)c(=O)[nH]1` [Example 33, 2-Amino-N-(21-chloro-3,6,9,12,15-pentaoxahenicos-1-yl)-9-(4-fluorobenzyl)-6-oxo-6,9-dihydro-1H-purine-8-carboxamide] is 0.9.

As for `Nc1nc2c(nc(/C=C/C(=O)NCCOCCOCCOCCOCCOCCCCCCCl)n2Cc2ccc(F)cc2)c(=O)[nH]1` [Example 5, (2E)-3-(2-Amino-9-(4-fluorobenzyl)-6-oxo-6,9-dihydro-1H-purin-8-yl)-N-(21-chloro-3,6,9,12,15-pentaoxahenicos-1-yl)acrylamide], the “Activity value (GFP/actin of drug-treated cells relative to drug-untreated control)” value is 0.3. Same read-out and setting: the figure for `Nc1nc2c(nc(-c3cn(CCOCCOCCOCCOCCOCCCCCCCl)nn3)n2Cc2ccc(F)cc2)c(=O)[nH]1` [Example 15, 2-Amino-8-(1-(21-chloro-3,6,9,12,15-pentaoxahenicos-1-yl)-1H-1,2,3-triazol-4-yl)-9-(4-fluorobenzyl)-1,9-dihydro-6H-purin-6-one] is 0.9; for `CC(=O)N[C@@H](CSc1nc2c(=O)[nH]c(N)nc2n1Cc1cccnc1)C(=O)NCCOCCOCCOCCOCCOCCCCCCCl` [Example 41, N^2-acetyl-S-(2-amino-6-oxo-9-(pyridin-3-ylmethyl)-6,9-dihydro-1H-purin-8-yl)-N-(21-chloro-3,6,9,12,15-pentaoxahenicos-1-yl)-L-cysteinamide trifluoroacetic acid salt] it is 0.5. Still for that read-out and setting: the value for `CC(=O)N[C@@H](CSc1nc2cncnc2n1Cc1ccc(F)cc1)C(=O)NCCOCCOCCOCCOCCOCCCCCCCl` [Example 18, N^2-Acetyl-N-(21-chloro-3,6,9,12,15-pentaoxahenicos-1-yl)-S-(9-(4-fluorobenzyl)-9H-purin-8-yl)-L-cysteinamide] was 0.1. Still for that read-out and setting: the value for `CC(=O)N[C@@H](CSc1nc2c(=O)[nH]c(N)nc2n1-c1ccccc1)C(=O)NCCOCCOCCOCCOCCOCCCCCCCl` [Example 40, N^2-acetyl-S-(2-amino-6-oxo-9-phenyl-6,9-dihydro-1H-purin-8-yl)-N-(21-chloro-3,6,9,12,15-pentaoxahenicos-1-yl)-L-cysteinamide] was 0.7.

As for `CC(=O)N[C@@H](CSc1nc2c(=O)[nH]c(N)nc2n1Cc1ccc(S(C)(=O)=O)cc1)C(=O)NCCOCCOCCOCCOCCOCCCCCCCl` [Example 39, N^2-acetyl-S-(2-amino-9-(4-(methylsulfonyl)benzyl)-6-oxo-6,9-dihydro-1H-purin-8-yl)-N-(21-chloro-3,6,9,12,15-pentaoxahenicos-1-yl)-L-cysteinamide], the “Activity value (GFP/actin of drug-treated cells relative to drug-untreated control)” value was 0.7. Turning to `Nc1nc2c(nc(-c3cnn(CCOCCOCCOCCOCCOCCCCCCCl)c3)n2Cc2ccc(F)cc2)c(=O)[nH]1` [Example 14, 2-amino-8-(1-(21-chloro-3,6,9,12,15-pentaoxahenicos-1-yl)-1H-pyrazol-4-yl)-9-(4-fluorobenzyl)-1,9-dihydro-6H-purin-6-one], the “Activity value (GFP/actin of drug-treated cells relative to drug-untreated control)” value is 0.2.

Staying with this assay, now noted: 5 uM, 24 hours, 1 or less = degradation promoted.
Take `Nc1nc2c(nc(SCC(=O)NCCOCCOCCOCCOCCOCCCCCCCl)n2Cc2ccc(F)cc2)c(=O)[nH]1` [Example 7]: the “Activity value (GFP/actin of drug-treated cells relative to drug-untreated control)” value is listed as 0.79.

The same assay, now with this note: 10 uM, 24 hours, 1 or less = degradation promoted.
In the case of `Nc1nc2c(nc(-c3cccc(C(=O)NCCOCCOCCOCCOCCOCCCCCCCl)c3)n2Cc2ccc(F)cc2)c(=O)[nH]1` [Example 4, 3-(2-amino-9-(4-fluorobenzyl)-6-oxo-6,9-dihydro-1H-purin-8-yl)-N-(21-chloro-3,6,9,12,15-pentnoxahenicos-1-yl)benzamide], the “Activity value (GFP/actin of drug-treated cells relative to drug-untreated control)” value came out at 0.8. Consider `Nc1nc2c(nc(SCCC(=O)NCCOCCOCCOCCOCCOCCCCCCCl)n2Cc2ccc(F)cc2)c(=O)[nH]1` [Example 2], for which the “Activity value (GFP/actin of drug-treated cells relative to drug-untreated control)” value came out at 0.9.

For `CC(=O)N[C@@H](CSc1nc2c(=O)[nH]c(N)nc2n1Cc1ccc(Cl)cc1)C(=O)NCCOCCOCCOCCOCCOCCCCCCCl` [Example 1, N^2-Acetyl-S-(2-amino-9-(4-chlorobenzyl)-6-oxo-6,9-dihydro-1H-purin-8-yl)-N-(21-chloro-3,6,9,12,15-pentaoxahenicos-1-yl)-L-cysteinamide], the “Activity value (GFP/actin of drug-treated cells relative to drug-untreated control)” value amounted to 0.7.

Staying with this assay, now noted: 100 uM, 24 hours, 1 or less = degradation promoted.
As for `Nc1nc2c(nc(C(=O)N3CCCCC3C(=O)NCCOCCOCCOCCOCCOCCCCCCCl)n2Cc2ccc(F)cc2)c(=O)[nH]1` (stereo not shown) [Example 46, 1-((2-Amino-9-(4-fluorobenzyl)-6-oxo-6,9-dihydro-1H-purin-8-yl)carbonyl)-N-(21-chloro-3,6,9,12,15-pentaoxahenicos-1-yl)piperidine-2-carboxamide], the “Activity value (GFP/actin of drug-treated cells relative to drug-untreated control)” value came out at 0.2. Still for that read-out and setting: the figure for `Nc1nc2c(nc(CNCCOCCOCCOCCOCCOCCCCCCCl)n2Cc2ccc(F)cc2)c(=O)[nH]1` [Example 32, 2-Amino-8-(23-chloro-5,8,11,14,17-pentaoxa-2-azatricos-1-yl)-9-(4-fluorobenzyl)-1,9-dihydro-6H-purin-6-one] is 0.7. Still for that read-out and setting: the figure for `Nc1nc2c(nc(-c3ccc(C(=O)NCCOCCOCCOCCOCCOCCCCCCCl)cc3)n2Cc2ccc(F)cc2)c(=O)[nH]1` [Example 3, 4-(2-Amino-9-(4-fluorobenzyl)-6-oxo-6,9-dihydro-1H-purin-8-yl)-N-(21-chloro-3,6,9,12,15-pentaoxahenicos-1-yl)benzamide] is 0.3.
